Patent US8158621B2, “Methods of treating or preventing autoimmune diseases with 2,4-pyrimidinediamine compounds” (Rigel Pharmaceuticals, Inc., priority 2002, dated 2012)
Read-outs that look alike come from different tables or passages of the source.

How the values were obtained:
[1] = system: cultured human mast cells (CHMC); experiment: CHMC low cell density IgE activation: tryptase assay; assay type: cell-based; conditions: low cell density; read-out: CHMC anti-IgE Tryptase
Summary of the method: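 Degranulation was triggered with anti-IgE for 30 minutes at 37° C in cultured human mast cells seeded at low density (1000-1500 cells/well, chosen by donor) after a 1 hr equilibration in MT buffer. Released tryptase in cleared supernatant was quantified with a tryptase substrate at room temperature for 30 minutes.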

[2] = system: cultured human mast cells (CHMC); experiment: CHMC low cell density ionomycin activation: tryptase assay; assay type: cell-based; conditions: low cell density; read-out: CHMC Ionomycin Tryptase
Syk kinase = molecular target: T1, Syk kinase (Homo sapiens, UniProt P43405); experiment: Syk kinase biochemical fluorescence polarization assay; conditions: isolated Syk kinase; for IC50: fluorescence polarization, 4 uM ATP
T1 construct: purchased Upstate, Lake Placid NY

[3] = system: Human Jurkat T-cells (clone N); experiment: Jurkat T-cell activation (anti-TCR, CD69 upregulation); assay type: cell-based
Summary of the method: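 Readout is CD69 upregulation by flow cytometry (anti-CD69-APC, 20 min at 4 °C) after 20 h anti-TCR (C305, 500 ng/ml) stimulation at 37 °C.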

Row | Compound | IC50 [1] [µM] | IC50 [2] [µM] | IC50 (Syk kinase) [µM] | IC50 [3] [µM] | Syk kinase catalyzed phosphorylation of a peptide substrate, IC50s (Syk kinase) | IC50 ([3]; Homo sapiens, Jurkat) [µM]
1 | COc1cc(Nc2ncc(F)c(Nc3ccc4c(c3)NC(=O)C(F)(F)O4)n2)cc(C(F)(F)F)c1 [Compound R926984] | 0.167 | > 10 | 0.459 |  |  | 
2 | CC(=O)N1CCN(c2ccc(Nc3ncc(F)c(NC4CCC4)n3)cc2)CC1 [Compound R945385] | 1.1 |  | 2.12 |  |  | 
3 | CC1(C)Oc2ccc(Nc3ncc(F)c(Nc4ccc5c(c4)NC(=O)C(F)(F)O5)n3)cc2NC1=O [Compound R940367] | 0.117 | 14.1 | 0.013 |  |  | 
4 | CC1(C)Oc2ccc(Nc3nc(Nc4cc(Cl)c(O)c(Cl)c4)ncc3F)cc2NC1=O [Compound R927051] |  | 12.6 | 0.01 |  |  | 
5 | N[C@@H]1CCCC[C@H]1Nc1ncc(F)c(Nc2cc(Cl)cc(Cl)c2)n1 [Compound R950440] | 10.5 |  | > 10 |  |  | 
6 | COC(=O)N1CCN(c2ccc(Nc3ncc(F)c(Nc4ccc5c(n4)NC(=O)CO5)n3)cc2)CC1 [Compound R945392] | 0.085 | > 10 | 0.014 |  |  | 
7 | CNC(=O)COc1cccc(Nc2ncc(F)c(Nc3cccc(N)n3)n2)c1 [Compound R927080] | 0.204 |  | 0.254 |  |  | 
8 | Cc1cc(C)cc(Nc2ncc(F)c(Nc3ccc4c(n3)NC(=O)CO4)n2)c1 [Compound R945432] | 0.049 |  | 4440 |  |  | 
9 | O=C1Nc2cc(Nc3nc(Nc4cc(Cl)c(O)c(Cl)c4)ncc3F)ccc2OC1(F)F [Compound R927048] | 0.05 | > 10 | 0.002 |  |  | 
10 | COc1cc(Nc2ncc(F)c(Nc3ccc4c(c3)NC(=O)C(F)(F)O4)n2)cc(OC)c1 [Compound R926970] | 0.06 | > 10 | 0.057 |  |  | 
11 | CCOC(=O)CCn1ncc2cc(Nc3ncc(F)c(Nc4ccc5c(c4)NC(=O)C(C)(C)O5)n3)ccc21 [Compound R935431] | 0.124 |  | 0.132 |  |  | 
12 | Cc1cccc(C)c1Nc1ncc(F)c(Nc2cccc(N)n2)n1 [Compound R927078] | 0.245 |  | 0.222 |  |  | 
13 | Nc1cccc(Nc2nc(Nc3cccc(O)c3)ncc2F)n1 [Compound R927083] | 0.316 | 19 | 0.449 |  |  | 
14 | CC1(C)Oc2ccc(Nc3nc(Nc4cc(Cl)cc(Cl)c4)ncc3F)nc2NC1=O [Compound R940387] | 1.19 |  | > 10 |  |  | 
15 | CC1(C)Oc2ccc(Nc3nc(Nc4ccc(N5CCOCC5)cc4)ncc3F)nc2NC1=O [Compound R945423] | 0.145 |  | 0.273 |  |  | 
16 | O=C1COc2ccc(Nc3nc(Nc4ccc(Cl)c(Cl)c4)ncc3F)nc2N1 [Compound R945398] | 7 |  | 0.182 |  |  | 
17 | COc1ccc(Nc2ncc(F)c(Nc3ccc4c(n3)NC(=O)C(C)(C)O4)n2)cc1F [Compound R940384] | 1.32 |  | > 10 |  |  | 
18 | Cn1ncc2ccc(Nc3ncc(F)c(Nc4ccc5c(c4)NC(=O)C(F)(F)O5)n3)cc21 [Compound R940368] | 0.025 | 1.58 | 0.001 |  |  | 
19 | O=C1COc2ccc(Nc3nc(Nc4ccc5c(c4)OCCO5)ncc3F)nc2N1 [Compound R945405] | 0.131 |  | 0.168 |  |  | 
20 | CC(=O)N1CCN(c2ccc(Nc3ncc(F)c(Nc4ccc5c(n4)NC(=O)CO5)n3)cc2)CC1 [Compound R945391] | 0.094 | > 10 | 0.01 |  |  | 

Row | Compound | IC50 [1] [µM] | IC50 [2] [µM] | IC50 (Syk kinase) [µM] | IC50 [3] [µM] | Syk kinase catalyzed phosphorylation of a peptide substrate, IC50s (Syk kinase) | IC50 ([3]; Homo sapiens, Jurkat) [µM]
21 | Fc1cnc(Nc2ccc3cc[nH]c3c2)nc1Nc1ccc(Cl)c(Cl)c1 [Compound R926975] | 0.421 | 30.2 | 0.767 |  |  | 
22 | CCN(C(C)=O)c1ccc(Nc2ncc(F)c(Nc3ccc4c(n3)NC(=O)C(C)(C)O4)n2)cc1 [Compound R945418] |  | > 10 | > 10 |  |  | 
23 | NC1CCOc2ccc(Nc3nc(Nc4ccc(Cl)c(Cl)c4)ncc3F)cc21 (racemic) [Compound R950430] | 0.239 |  | 0.15 |  |  | 
24 | C[C@@H]1Oc2ccc(Nc3ncc(F)c(Nc4ccc5c(c4)NC(=O)[C@H](C)O5)n3)cc2NC1=O [Compound R908952] | 0.08 | 6.07 | 0.041 |  |  | 
25 | Cn1ncc2ccc(Nc3ncc(F)c(Nc4ccc5c(n4)NC(=O)C(C)(C)O5)n3)cc21 [Compound R940389] | 0.06 |  | 0.053 |  |  | 
26 | COc1cc(Nc2ncc(F)c(Nc3ccc4c(n3)NC(=O)CO4)n2)cc(OC)c1 [Compound R945401] |  | > 10 | 0.007 |  |  | 
27 | COC(=O)N1CCN(c2ccc(Nc3ncc(F)c(NC4CC4)n3)cc2)CC1 [Compound R945371] | 0.713 | > 10 | 1.3 |  |  | 
28 | Fc1cc(Nc2nc(Nc3ccc4cn[nH]c4c3)ncc2F)ccc1Cl [Compound R935414] | 0.204 |  | 0.152 |  |  | 
29 | CC(C)Oc1ccc(Nc2ncc(F)c(Nc3ccc4c(n3)NC(=O)CO4)n2)cc1 [Compound R945413] | 1.7 |  | > 10 |  |  | 
30 | COc1cc(Nc2ncc(F)c(Nc3ccc4c(n3)NC(=O)C(C)(C)O4)n2)cc(OC)c1 [Compound R940372] | 0.094 |  | 0.253 |  |  | 
31 | COC(=O)N1CCN(c2ccc(Nc3ncc(F)c(Nc4ccc5c(n4)NC(=O)C(C)(C)O5)n3)cc2)CC1 [Compound R945416] | 0.053 |  | 0.515 |  |  | 
32 | CC1(C)Oc2ccc(Nc3nc(Nc4cccc(Cl)c4)ncc3F)nc2NC1=O [Compound R940386] | 3.42 |  | 19.5 |  |  | 
33 | COc1ccc(Nc2nc(Nc3cc(C)c(O)c(Cl)c3)ncc2F)cc1Cl [Compound R926968] | 0.249 |  | 0.235 | 2.02 |  | 
34 | COc1ccc(Nc2ncc(F)c(Nc3ccc4c(n3)NC(=O)CO4)n2)cc1F [Compound R945402] | 0.112 |  | 0.418 |  |  | 
35 | CC1(C)Oc2ccc(Nc3nc(Nc4cccc(OCC(=O)NC5CCC5)c4)ncc3F)nc2NC1=O [Compound R945424] | 0.188 |  | 0.665 |  |  | 
36 | CN1CCN(c2ccc(Nc3ncc(F)c(Nc4ccc5c(n4)NC(=O)C(C)(C)O5)n3)cc2)CC1 [Compound R945427] | 0.279 |  | 0.479 |  |  | 
37 | CNC(=O)Cn1ncc2cc(Nc3ncc(F)c(Nc4ccc5c(c4)NC(=O)C(C)(C)O5)n3)ccc21 [Compound R935437] | 0.082 |  | 0.127 |  |  | 
38 | CN(C)CCOc1ccc(Nc2ncc(F)c(Nc3cccc(O)c3)n2)cc1 [Compound R909236] |  |  | 2.07 | > 10 | micromolar range | 
39 | CCOC(=O)c1cnc(Nc2cccc3cn[nH]c23)nc1Nc1cccc2cn[nH]c12 [Compound R926321] |  |  | 5050 | 1.29 |  | 
40 | CC1(C)C(=O)NC(=O)c2cc(Nc3nc(Nc4ccc5cn[nH]c5c4)ncc3F)ccc21 [Compound R908956] | 0.34 |  | 1.18 |  |  | 

Row | Compound | IC50 [1] [µM] | IC50 [2] [µM] | IC50 (Syk kinase) [µM] | IC50 [3] [µM] | Syk kinase catalyzed phosphorylation of a peptide substrate, IC50s (Syk kinase) | IC50 ([3]; Homo sapiens, Jurkat) [µM]
41 | CC1(C)Oc2ccc(Nc3nc(Nc4cccc(O)c4)ncc3F)nc2NC1=O [Compound R940382] | 0.104 |  | 0.144 |  |  | 
42 | Cc1cc(C)cc(Nc2ncc(F)c(Nc3ccc4c(n3)NC(=O)C(C)(C)O4)n2)c1 [Compound R945433] | 0.276 |  | 0.431 |  |  | 
43 | CC(=O)N1CCN(c2ccc(Nc3ncc(F)c(Nc4ccc5c(n4)NC(=O)C(C)(C)O5)n3)cc2)CC1 [Compound R945419] | 0.125 |  | 0.127 |  |  | 
44 | COC(=O)c1cc2cc(Nc3ncc(F)c(Nc4ccc5c(c4)NC(=O)C(F)(F)O5)n3)ccc2o1 [Compound R940353] |  |  | 0.325 | 20.7 |  | 
45 | COc1cc(Nc2nc(Nc3ccc4cn[nH]c4c3)ncc2F)ccc1F [Compound R935416] | 0.166 |  | 0.196 |  |  | 
46 | COC(=O)Cn1ncc2cc(Nc3ncc(F)c(Nc4ccc5c(c4)NC(=O)C(C)(C)O5)n3)ccc21 [Compound R935436] | 0.058 |  | 0.064 |  |  | 
47 | CNC(=O)COc1cccc(Nc2ncc(F)c(Nc3cc(C)ccn3)n2)c1 [Compound R927016] |  |  | 0.954 | 7.16 |  | 
48 | Cc1ccc(Nc2nc(Nc3cccc(O)c3)ncc2F)nc1 [Compound R927017] |  |  | 2.35 |  |  | 8.16
49 | CN1CCN(c2ccc(Nc3ncc(F)c(Nc4ccc5c(n4)NC(=O)CO5)n3)cc2)CC1 [Compound R945426] | 0.256 |  | 0.301 |  |  | 
50 | CCOC(=O)COc1cccc(Nc2ncc(C(=O)OCC)c(Nc3ccc4c(c3)OCCO4)n2)c1 [Compound R926797] |  |  | > 10 | > 10 |  | 
51 | Fc1cnc(Nc2ccc3[nH]ncc3c2)nc1Nc1ccc2[nH]ncc2c1 [Compound R935189] |  |  | 0.354 | 0.736 |  | 
52 | CCOC(=O)COc1cccc(Nc2ncc(C(=O)OCC)c(Nc3cccc(O)c3)n2)c1 [Compound R926798] |  |  | > 10 | > 10 |  | 
53 | COc1c(Cl)cc(Nc2ncc(F)c(Nc3ccc4c(n3)NC(=O)CO4)n2)cc1Cl [Compound R945400] | > 10 |  | 17.9 |  |  | 
54 | COc1ccc(Nc2ncc(F)c(Nc3ccc4c(n3)NC(=O)CO4)n2)cc1 [Compound R945404] | 0.103 |  | > 10 |  |  | 
55 | O=C1COc2ccc(Nc3nc(Nc4ccc(N5CCOCC5)cc4)ncc3F)nc2N1 [Compound R945412] | 0.095 |  | 0.308 |  |  | 
56 | COc1ccc(Nc2ncc(F)c(Nc3ccc4c(n3)NC(=O)C(C)(C)O4)n2)cc1Cl [Compound R940371] | 0.316 |  | 3.64 |  |  | 
57 | O=C(c1cc2cc(Nc3ncc(F)c(Nc4cccc(O)c4)n3)ccc2o1)N1CCNCC1 [Compound R926500] |  |  | 0.929 | 2.37 |  | 
58 | COc1cc(Nc2ncc(F)c(Nc3cccc(O)c3)n2)cc(OC)c1 [Compound R926780] |  |  | 0.107 | 2.16 |  | 
